The values that follow come from patent US4486445A, “Justicidin insecticidal and antiviral compounds” (E. I. Du Pont de Nemours and Company, priority 1983, dated 1984).

Series [1] deals with Human Rhino Virus (HRV-2). Description: inhibition of HRV-2 in HeLa cells. Type of series: cell-based, Human rhinovirus HRV-2. The settings on record: Rhinovirus A, 400 PFU; for inhibition at 0.016 µg/mL: HRV2, 0.016 μg/ml; for inhibition at 0.08 µg/mL: HRV2, 0.08 μg/ml; for inhibition at 0.4 µg/mL: HRV2, 0.4 μg/ml; for inhibition at 2 µg/mL: HRV2, 2 μg/ml; for inhibition at 10 µg/mL: HRV2, 10 μg/ml.

The subject of series [2] is Aedes egypti larvae. Description: insecticidal activity against larvae of A. egypti in water. Type of series: in vivo. The settings on record: Aedes; larvae of A. egypti in H2O; read-out: EC50 (effective kill concentration for 50% of the experimental larvae). How it is done:
The insecticidal activity of the crude acetone/water extracts of Justicia extensa, prepared according to the isolation procedure described previously, was tested against laboratory cultures of the mosquito species Aedes egypti (Linnaeus) and southern army worm (SAW) Spodoptera eridania (Cramer). Extracts of leaves, branches and roots were employed in each test.
In tests against larvae of A. egypti, 10 mg of the crude plant extract was thoroughly dispersed in 20 ml of water in a test tube to which 10 first instar larvae were added.

The subject of series [3] is A/JAX inbred mice. In words: in vivo oral toxicity in A/JAX inbred mice. The settings on record: orally, 200 and 100 mg/kg. How it is done:
In vivo toxicity studies of natural and synthetic Justicidin P produced mixed results. […] However, natural and synthetic Justicidin P were toxic to A/JAX inbred mice when administered orally at dosages of 200 and 100 mg/kg.

Series [4] concerns fish. The settings on record: in vivo, cited from earlier work.
Series [5] deals with mosquito larvae of the species Culex pipiens pallens. Conditions: mixtures with pyrethrin or allethrin; cited from earlier work.
Series [6] deals with IMR-90 cells. The settings on record: substantially similar test conditions.
For series [7], the system named is Herpes Type 1-strain VR3. Description: plaque formation inhibition, Herpes Type 1 in HeLa cells. Conditions: HeLa; 8 μg/ml, similar test conditions. Type of series: cell-based.
For series [8], the system named is Herpes Type 2-Alabama strain. In words: plaque formation inhibition, Herpes Type 2 in HeLa cells. The settings on record: range between 0.5 μg/ml and 8 μg/ml, similar test conditions. Type of series: cell-based.

Values after ≈ are worked out from the molar mass of the structure shown. Where two headings read alike, the source gives them in different places.

The term inhibition denotes the relative decrease from the control value, in per cent. Read a low inhibition as a weak effect. In series [1], `COc1cc2c(OC)c3c(c(-c4ccc5c(c4)OCO5)c2cc1OC)C(=O)OC3OC` (racemic) [Justicidin P (synthetic), (±)-9-(1,3-Benzodioxol-5-yl)-3,4,6,7-tetramethoxynaphtho[2,3-c]furan-1(3H)-one] registered an inhibition at 0.016 µg/mL of 0%, an inhibition at 0.08 µg/mL of 0%, an inhibition at 0.4 µg/mL of 0% and an inhibition at 2 µg/mL of 73%. The inhibition at 10 µg/mL in series [1] was determined as 43%. In series [2], the LC50 stood at 0.01 µg/mL (≈ 0.0236 µM). Moreover, the in vivo toxicity entry in series [3] is reported as “toxic”.

Regarding `COc1cc2c(OC)c3c(c(-c4ccc5c(c4)OCO5)c2cc1OC)C(=O)OC3` [Justicidin A, 9-(1,3-Benzodioxol-5-yl)-4,6,7-trimethoxynaphtho[2,3-c]furan-1(3H)-one], the LC50 in series [2] worked out at 10 µg/mL (≈ 25.4 µM). Moreover, the piscicidal activity entry was “extraordinary piscicidal activity” in series [4] and “active piscicidal components” in series [4] (listed as justicidins A). Moreover, the synergistic behavior result in series [5] is “synergistic behavior was observed”.

With `COc1cc2cc3c(c(-c4ccc5c(c4)OCO5)c2cc1OC)C(=O)OC3` [Justicidin B], the figures for the piscicidal activity result in series [4] and in series [4] (listed as B) were “extraordinary piscicidal activity” and “active piscicidal components”, respectively. In addition, the synergistic behavior entry in series [5] was “synergistic behavior was observed”.

As to `Nc1nc2c(ncn2COCCO)c(=O)[nH]1` [acyclovir, 9-(2-hydroxy-ethoxymethyl)guanine, reference compound], in series [1], testing at 0.016 µg/mL gave an inhibition of 0%, the inhibition at 0.08 µg/mL worked out at 0%, the inhibition at 0.4 µg/mL is 0% and the inhibition at 2 µg/mL is 0%. Further, the inhibition at 10 µg/mL in series [1] came out at 0%. For the same compound, the “sensitivity of IMR-90 cells” value in series [6] is listed as “sensitive”. The same compound registered an inhibition at 8 µg/mL in series [7] of 90%. For the same compound, the “inhibition of Type 2 plaque formation” value in series [8] was 90-99%.
